Laboratory results as given in patent US9777008B2, “PRMT5 inhibitors and uses thereof” (Epizyme, Inc., priority 2012, dated 2017).

Legend:
[1] = test system: symmetric di-methyl arginine in Z-138 cells; assay: Z-138 Methylation Assay (In Cell Western for symmetric di-methyl arginine and DNA content); type: cell-based; settings: Homo sapiens, read-out: ICW EC50
From the text: [formula] [formula] Where top and bottom are the normally allowed to float, but may be fixed at 100 or 0 respectively in a 3-parameter fit. The Hill Coefficient normally allowed to float but may also be fixed at 1 in a 3-parameter fit. Y is the % inhibition and X is the compound concentration. Z-138 Methylation Assay
Z-138 suspension cells were purchased from ATCC (American Type Culture Collection, Manassas, Va.). RPMI/Glutamax medium, penicillin-streptomycin, heat inactivated fetal bovine serum, and D-PBS were purchased from Life Technologies, Grand Island, N.Y., USA. Odyssey blocking buffer, 800CW goat anti-rabbit IgG (H+L) antibody, and Licor Odyssey infrared scanner were purchased from Licor Biosciences, Lincoln, Nebr., USA. Symmetric di-methyl arginine antibody was purchased from EMD Millipore, Billerica, Mass., USA. 16% Paraformaldehyde was purchased from Electron Microscopy Sciences, Hatfield, Pa., USA. Z-138 suspension cells were maintained in growth medium (RPMI 1640 supplemented with 10% v/v heat inactivated fetal bovine serum and 100 units/mL penicillin-streptomycin) and cultured at 37° C. under 5% CO2.
Cell Treatment, in Cell Western (ICW) for Detection of Symmetric Di-Methyl Arginine and DNA Content.
Z-138 cells were seeded in assay medium at a concentration of 50,000 cells per mL to a 384-well cell culture plate with 50 μL per well. Compound (100 nL) from 384 well source plates was added directly to 384 well cell plate. Plates were incubated at 37° C., 5% CO2 for 96 hours. […]
First, the ratio for each well was determined by:
Each plate included fourteen control wells of DMSO only treatment (minimum inhibition) as well as fourteen control wells for maximum inhibition treated with 3 μM of a reference compound (Background wells). The average of the ratio values for each control type was calculated and used to determine the percent inhibition for each test well in the plate. […] Percent inhibition was determined and IC50 curves were generated using triplicate wells per concentration of compound. […]

[2] = biological target: PRMT5/MEP50 (Homo sapiens (Human), UniProt O14744); assay: PRMT5 Biochemical Assay (PRMT5/MEP50 enzyme assay on peptide substrate, 3H-SAM Flashplate)
From the text: S-adenosylmethionine (SAM), S-adenosylhomocysteine (SAH), bicine, KCl, Tween20, dimethylsulfoxide (DMSO), bovine skin gelatin (BSG), and Tris(2-carboxyethyl)phosphine hydrochloride solution (TCEP) were purchased from Sigma-Aldrich at the highest level of purity possible. ^3H-SAM was purchase from American Radiolabeled Chemicals with a specific activity of 80 Ci/mmol. 384-well streptavidin Flashplates were purchased from PerkinElmer.
Peptide representative of human histone H4 residues 1-15 was synthesized with a C-terminal linker-affinity tag motif and a C-terminal amide cap by 21st Century Biochemicals. The peptide was high high-performance liquid chromatography (HPLC) purified to greater than 95% purity and confirmed by liquid chromatography mass spectrometry (LC-MS). The sequence was Ac-[…][K-Biot]-amide (SEQ ID NO.:3).
Molecular Biology: Full-length human PRMT5 (NM_006109.3) transcript variant 1 clone was amplified from a fetal brain cDNA library, incorporating flanking 5′ sequence encoding a FLAG tag ([…]) (SEQ ID NO.:4) fused directly to Ala 2 of PRMT5. Full-length human MEP50 (NM_024102) clone was amplified from a human testis cDNA library incorporating a 5′ sequence encoding a 6-histidine tag (MHHHHHH) (SEQ ID NO.:5) fused directly to Arg 2 of MEP50. The amplified genes were sublconed into pENTR/D/TEV (Life Technologies) and subsequently transferred by Gateway™ attL×attR recombination to pDEST8 baculvirus expression vector (Life Technologies).
Recombinant baculovirus and Baculovirus-Infected Insect Cells (BIIC) were generated according to Bac-to-Bac kit instructions (Life Technologies) and Wasilko, 2006, respectively. Protein over-expression was accomplished by infecting exponentially growing Spodoptera frugiperda (SF9) cell culture at 1.2×10^6 cell/ml with a 5000 fold dilution of BIIC stock. Infections were carried out at 27° C. for 72 hours, harvested by centrifugation, and stored at −80° C. for purification.
Flag-PRMT5/6His-MeP50 was eluted with 300 mM Imidazole in the same buffer. The purity of recovered protein was 87%. Reference: Wasilko, D. J. and S. E. Lee: “TIPS: titerless infected-cells preservation and scale-up” Bioprocess J., 5 (2006), pp. 29-32.
General Procedure for PRMT5/MEP50 Enzyme Assays on Peptide Substrates.
The assays were all performed in a buffer consisting of 20 mM Bicine (pH=7.6), 1 mM TCEP, 0.005% BSG, and 0.002% Tween20, prepared on the day of use. Compounds in 100% DMSO (1 ul) were spotted into a polypropylene 384-well V-bottom plates (Greiner) using a Platemate Plus outfitted with a 384-channel head (Thermo Scientific). DMSO (1 ul) was added to Columns 11, 12, 23, 24, rows A-H for the maximum signal control and 1 ul of SAH, a known product and inhibitor of PRMT5/MEP50, was added to columns 11, 12, 23, 24, rows I-P for the minimum signal control. A cocktail (40 ul) containing the PRMT5/MEP50 enzyme and the peptide was added by Multidrop Combi (Thermo-Fisher). The compounds were allowed to incubate with PRMT5/MEP50 for 30 min at 25 degrees Celsius, then a cocktail (10 ul) containing ^3H-SAM was added to initiate the reaction (final volume=51 ul). The final concentrations of the components were as follows: PRMT5/MEP50 was 4 nM, ^3H-SAM was 75 nM, peptide was 40 nM, SAH in the minimum signal control wells was 100 uM, and the DMSO concentration was 1%. The assays were stopped by the addition of non-radioactive SAM (10 ul) to a final concentration of 600 uM, which dilutes the ^3H-SAM to a level where its incorporation into the peptide substrate is no longer detectable. 50 ul of the reaction in the 384-well polypropylene plate was then transferred to a 384-well Flashplate and the biotinylated peptides were allowed to bind to the streptavidin surface for at least 1 hour before being washed three times with 0.1% Tween20 in a Biotek ELx405 plate washer. […]

PRMT5/MEP50, sequence (O14744 other isoform, or with tags, fused parts or gaps): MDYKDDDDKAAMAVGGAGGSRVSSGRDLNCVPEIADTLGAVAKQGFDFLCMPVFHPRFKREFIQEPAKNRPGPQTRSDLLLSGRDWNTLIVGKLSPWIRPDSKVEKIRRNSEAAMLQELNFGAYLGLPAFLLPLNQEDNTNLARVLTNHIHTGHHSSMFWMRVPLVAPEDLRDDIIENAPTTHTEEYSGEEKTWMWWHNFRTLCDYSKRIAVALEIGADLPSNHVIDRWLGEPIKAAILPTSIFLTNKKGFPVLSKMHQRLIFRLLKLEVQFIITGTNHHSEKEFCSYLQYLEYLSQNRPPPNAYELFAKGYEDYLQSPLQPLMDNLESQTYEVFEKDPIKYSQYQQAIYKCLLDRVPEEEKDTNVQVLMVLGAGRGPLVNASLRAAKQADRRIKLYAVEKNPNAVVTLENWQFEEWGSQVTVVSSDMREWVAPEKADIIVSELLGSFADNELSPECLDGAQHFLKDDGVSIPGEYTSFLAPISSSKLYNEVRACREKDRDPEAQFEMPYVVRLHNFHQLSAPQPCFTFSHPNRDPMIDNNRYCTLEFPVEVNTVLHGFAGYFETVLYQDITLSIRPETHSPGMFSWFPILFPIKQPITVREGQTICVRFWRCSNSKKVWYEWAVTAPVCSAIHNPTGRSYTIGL
PRMT5/MEP50, sequence (Q9BQA1 other isoform, or with tags, fused parts or gaps partner): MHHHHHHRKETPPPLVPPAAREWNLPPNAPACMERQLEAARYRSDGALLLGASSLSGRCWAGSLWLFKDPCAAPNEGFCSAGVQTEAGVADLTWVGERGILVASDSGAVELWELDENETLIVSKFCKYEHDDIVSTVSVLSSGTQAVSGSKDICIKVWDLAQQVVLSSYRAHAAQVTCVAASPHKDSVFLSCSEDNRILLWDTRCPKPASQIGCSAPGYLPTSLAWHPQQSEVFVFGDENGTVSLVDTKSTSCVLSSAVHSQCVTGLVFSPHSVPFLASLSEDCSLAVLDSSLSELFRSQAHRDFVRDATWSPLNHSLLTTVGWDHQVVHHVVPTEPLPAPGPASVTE

EC50 [1]: 1 to 10 µM
IC50 [2]: 1 to 10 µM
SMILES: O=C(Nc1cccc(OCC(O)CN2CCc3ccccc3C2)c1)c1cccnc1 (centres unmarked) [Compound 163]
